# Read-outs that look alike come from different tables or passages of the source.
# Molecular target: Aminopeptidase N (APN, CD13) (Homo sapiens, UniProt P15144)
# Test: APN enzyme inhibitory assay, supernatant of K562-CD13 cells as enzyme source, L-leucine-p-nitro anilide substrate;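 further: substrate L-leucine-p-nitro anilide used at 1.6 mM, with enzyme from sonicated APN-overexpressing K562 cell lysate supernatant, run in 96-well plates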
# Details: for inhibition at 30 µM: read-out: Inhibitory rate (%)
# Description: In the enzyme inhibitory assay, K562-CD13 monoclonal cells were used as APN enzyme source as described in our previous work ([27]).
# K562 cells with overexpression of APN were added into PBS for ultrasonic crushing, centrifuged for 10 minutes, and supernatant was taken as enzyme source and added into 96-well plate. Different concentrations of compounds were added subsequently, and 1.6 mM L-leucine-p-nitro anilide was used as substrate. After 30 minutes of reaction, the APN enzyme activity was measured at 405 nm absorbance. The inhibition rate of APN activity was analyzed by the formula (Od control OD tested)/Od control 100%.
# Aminopeptidase N (APN, CD13), sequence (P15144 whole entry): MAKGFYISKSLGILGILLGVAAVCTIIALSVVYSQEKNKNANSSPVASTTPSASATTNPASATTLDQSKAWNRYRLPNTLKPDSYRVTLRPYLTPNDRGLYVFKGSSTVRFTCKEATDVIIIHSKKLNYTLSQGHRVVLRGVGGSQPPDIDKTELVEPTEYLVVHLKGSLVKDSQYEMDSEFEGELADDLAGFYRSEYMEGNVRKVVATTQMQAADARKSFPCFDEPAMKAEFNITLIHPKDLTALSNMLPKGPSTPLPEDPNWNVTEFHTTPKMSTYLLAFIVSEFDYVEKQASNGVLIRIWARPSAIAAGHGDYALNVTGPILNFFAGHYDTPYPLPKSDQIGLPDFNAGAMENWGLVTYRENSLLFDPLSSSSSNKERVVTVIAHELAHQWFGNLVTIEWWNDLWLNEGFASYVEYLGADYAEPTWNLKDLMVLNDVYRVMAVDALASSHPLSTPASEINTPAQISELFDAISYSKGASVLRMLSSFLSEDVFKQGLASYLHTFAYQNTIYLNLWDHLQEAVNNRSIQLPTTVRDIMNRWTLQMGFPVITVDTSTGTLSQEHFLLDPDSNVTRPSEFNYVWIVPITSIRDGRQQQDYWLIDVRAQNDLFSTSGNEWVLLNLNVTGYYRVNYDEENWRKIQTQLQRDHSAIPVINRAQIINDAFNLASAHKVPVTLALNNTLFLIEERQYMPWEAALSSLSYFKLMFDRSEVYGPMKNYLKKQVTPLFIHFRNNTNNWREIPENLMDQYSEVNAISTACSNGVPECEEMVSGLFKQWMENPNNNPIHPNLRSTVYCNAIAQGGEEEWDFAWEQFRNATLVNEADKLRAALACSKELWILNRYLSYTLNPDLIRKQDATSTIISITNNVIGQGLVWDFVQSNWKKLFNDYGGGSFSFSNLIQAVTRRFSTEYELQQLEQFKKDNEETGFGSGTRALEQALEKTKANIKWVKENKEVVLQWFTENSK
SMILES,inhibition at 30 µM [%],further results
"O=C(Cn1c2c(c3ccccc31)CCN(C(=O)c1ccc(C(F)(F)F)cc1)C2)NO [Compound D1, N-hydroxy-2-(2-(4-(trifluoromethyl)benzoyl)-1,2,3,4-tetrahydro-9H-pyrido[3,4-b]indol-9-yl)acetamide]",35 ± 1.51,
"O=C(NO)c1ccc(Cn2c3c(c4ccccc42)CCN(C(=O)c2ccc(C(F)(F)F)cc2)C3)cc1 [Compound D2, N-hydroxy-4-((2-(4-(trifluoromethyl)benzoyl)-1,2,3,4-tetrahydro-9H-pyrido[3,4-b]indol-9-yl)methyl)benzamide]",13.3 ± 3.25,
"O=C(Cn1c2c(c3ccccc31)CCN(C(=O)c1ccccc1)C2)NO [Compound D3, 2-(2-benzoyl-1,2,3,4-tetrahydro-9H-pyrido[3,4-b]indol-9-yl)-N-hydroxyacetamide]",74.4 ± 6.42,IC50: 6.24 ± 0.43 µM
"O=C(NO)c1ccc(Cn2c3c(c4ccccc42)CCN(C(=O)c2ccccc2)C3)cc1 [Compound D4, 4-((2-benzoyl-1,2,3,4-tetrahydro-9H-pyrido[3,4-b]indol-9-yl)methyl)-N-hydroxybenzamide]",19.4 ± 4.53,
"O=C(Cn1c2c(c3ccccc31)CCN(C(=O)c1ccccc1C(F)(F)F)C2)NO [Compound D5, N-hydroxy-2-(2-(2-(trifluoromethyl)benzoyl)-1,2,3,4-tetrahydro-9H-pyrido[3,4-b]indol-9-yl)acetamide]",62.9 ± 8.72,IC50: 14.9 ± 1.03 µM
"O=C(NO)c1ccc(Cn2c3c(c4ccccc42)CCN(C(=O)c2ccccc2C(F)(F)F)C3)cc1 [Compound D6, N-hydroxy-4-((2-(2-(trifluoromethyl)benzoyl)-1,2,3,4-tetrahydro-9H-pyrido[3,4-b]indol-9-yl)methyl)benzamide]",15.3 ± 3.66,
"COc1ccccc1C(=O)N1CCc2c(n(Cc3ccc(C(=O)NO)cc3)c3ccccc23)C1 [Compound D7, N-hydroxy-4-((2-(2-methoxybenzoyl)-1,2,3,4-tetrahydro-9H-pyrido[3,4-b]indol-9-yl)methyl)benzamide]",17.9 ± 0.84,
"COc1ccccc1C(=O)N1CCc2c(n(CC(=O)NO)c3ccccc23)C1 [Compound D8, N-hydroxy-2-(2-(2-methoxybenzoyl)-1,2,3,4-tetrahydro-9H-pyrido[3,4-b]indol-9-yl) acetamide]",,"Inhibitory rate (%) (compound at 30 µM, mean of at least three experiments): 56.7±0.42%; IC50 (mean of at least three experiments): 25 ± 3.32 µM"
"COc1ccc(C(=O)N2CCc3c(n(Cc4ccc(C(=O)NO)cc4)c4ccccc34)C2)cc1 [Compound D9, N-hydroxy-4-((2-(4-methoxybenzoyl)-1,2,3,4-tetrahydro-9H-pyrido[3,4-b]indol-9-yl)methyl)benzamide]",24 ± 0.25,
"O=C(Cn1c2c(c3ccccc31)CCN(C(=O)c1ccc(F)cc1)C2)NO [Compound D10, 2-(2-(4-fluorobenzoyl)-1,2,3,4-tetrahydro-9H-pyrido[3,4-b]indol-9-yl)-N-hydroxyacetamide]",42.5 ± 1.42,
"O=C(NO)c1ccc(Cn2c3c(c4ccccc42)CCN(C(=O)c2ccc(F)cc2)C3)cc1 [Compound D11, 4-((2-(4-fluorobenzoyl)-1,2,3,4-tetrahydro-9H-pyrido[3,4-b]indol-9-yl)methyl)-N-hydroxybenzamide]",35 ± 4.57,
"O=C(NO)c1ccc(Cn2c3c(c4ccccc42)CCN(C(=O)c2cccc(F)c2)C3)cc1 [Compound D13, 4-((2-(3-fluorobenzoyl)-1,2,3,4-tetrahydro-9H-pyrido[3,4-b]indol-9-yl)methyl)-N-hydroxybenzamide]",13.2 ± 0.4,
"O=C(NO)c1ccc(Cn2c3c(c4ccccc42)CCN(C(=O)c2ccccc2F)C3)cc1 [Compound D15, 4-((2-(2-fluorobenzoyl)-1,2,3,4-tetrahydro-9H-pyrido[3,4-b]indol-9-yl)methyl)-N-hydroxybenzamide]",28.7 ± 2.75,
"Cc1ccccc1C(=O)N1CCc2c(n(Cc3ccc(C(=O)NO)cc3)c3ccccc23)C1 [Compound D17, N-hydroxy-4-((2-(2-methylbenzoyl)-1,2,3,4-tetrahydro-9H-pyrido[3,4-b]indol-9-yl)methyl)benzamide]",23.6 ± 4.51,
"CCc1ccc(C(=O)N2CCc3c(n(CC(=O)NO)c4ccccc34)C2)cc1 [Compound D18, 2-(2-(4-ethylbenzoyl)-1,2,3,4-tetrahydro-9H-pyrido[3,4-b]indol-9-yl)-N-hydroxyacetamide]",53.2 ± 2.08,
"CCc1ccc(C(=O)N2CCc3c(n(Cc4ccc(C(=O)NO)cc4)c4ccccc34)C2)cc1 [Compound D19, 4-((2-(4-ethylbenzoyl)-1,2,3,4-tetrahydro-9H-pyrido[3,4-b]indol-9-yl)methyl)-N-hydroxybenzamide]",19.5 ± 4.22,
"O=C(NO)c1ccc(Cn2c3c(c4ccccc42)CCN(C(=O)c2ccccc2Cl)C3)cc1 [Compound D20, 4-((2-(2-chlorobenzoyl)-1,2,3,4-tetrahydro-9H-pyrido[3,4-b]indol-9-yl)methyl)-N-hydroxybenzamide]",19.1 ± 4.17,
"O=C(Cn1c2c(c3ccccc31)CCN(C(=O)c1cccc(Br)c1)C2)NO [Compound D21, 2-(2-(3-bromobenzoyl)-1,2,3,4-tetrahydro-9H-pyrido[3,4-b]indol-9-yl)-N-hydroxyacetamide]",78.2 ± 5.43,IC50: 7.82 ± 1.05 µM
"O=C(NO)c1ccc(Cn2c3c(c4ccccc42)CCN(C(=O)c2cccc(Br)c2)C3)cc1 [Compound D22, 4-((2-(3-bromobenzoyl)-1,2,3,4-tetrahydro-9H-pyrido[3,4-b]indol-9-yl)methyl)-N-hydroxybenzamide]",19.2 ± 3.7,
"O=C(NO)c1ccc(Cn2c3c(c4ccccc42)CCN(C(=O)c2ccc(F)cc2F)C3)cc1 [Compound D23, 4-((2-(2,4-difluorobenzoyl)-1,2,3,4-tetrahydro-9H-pyrido[3,4-b]indol-9-yl)methyl)-N-hydroxybenzamide]",65 ± 5.97,
"O=C(Cn1c2c(c3ccccc31)CCN(C(=O)c1cc(F)cc(F)c1)C2)NO [Compound D24, 2-(2-(3,5-difluorobenzoyl)-1,2,3,4-tetrahydro-9H-pyrido[3,4-b]indol-9-yl)-N-hydroxyacetamide]",71.3 ± 4.25,IC50: 7.13 ± 0.13 µM
"O=C(NO)c1ccc(Cn2c3c(c4ccccc42)CCN(C(=O)c2cc(F)cc(F)c2)C3)cc1 [Compound D25, 4-((2-(3,5-difluorobenzoyl)-1,2,3,4-tetrahydro-9H-pyrido[3,4-b]indol-9-yl)methyl)-N-hydroxybenzamide]",27.9 ± 5.85,
"CCCc1ccc(C(=O)N2CCc3c(n(CC(=O)NO)c4ccccc34)C2)cc1 [Compound D26, N-hydroxy-2-(2-(4-propylbenzoyl)-1,2,3,4-tetrahydro-9H-pyrido[3,4-b]indol-9-yl)acetamide]",53.1 ± 7.31,
"CCCc1ccc(C(=O)N2CCc3c(n(Cc4ccc(C(=O)NO)cc4)c4ccccc34)C2)cc1 [Compound D27, N-hydroxy-4-((2-(4-propylbenzoyl)-1,2,3,4-tetrahydro-9H-pyrido[3,4-b]indol-9-yl)methyl)benzamide]",20.4 ± 5.78,
"O=C(Cn1c2c(c3ccccc31)CCN(C(=O)c1cc(F)ccc1F)C2)NO [Compound D28, 2-(2-(2,5-difluorobenzoyl)-1,2,3,4-tetrahydro-9H-pyrido[3,4-b]indol-9-yl)-N-hydroxyacetamide]",78 ± 3.95,IC50: 4.85 ± 0.55 µM
"O=C(Cn1c2c(c3ccccc31)CCN(C(=O)c1c(F)cccc1Cl)C2)NO [Compound D29, 2-(2-(2-chloro-6-fluorobenzoyl)-1,2,3,4-tetrahydro-9H-pyrido[3,4-b]indol-9-yl)-N-hydroxyacetamide]",60 ± 4.95,IC50: 9.23 ± 0.67 µM

# From paper PMC9168271, “Discovery of Novel Tetrahydro-β-carboline Containing Aminopeptidase N Inhibitors as Cancer Chemosensitizers” (Frontiers in Oncology, 2022)
